Measurements as given in paper PMC9404989, “Design and Evaluation of Short Bovine Lactoferrin-Derived Antimicrobial Peptides against Multidrug-Resistant Enterococcus faecium” (Antibiotics, 2022).

Test system: E. faecium
Assay: Antibacterial activity of native LfcinB6
Assay type: cell-based, Enterococcus faecium
Settings: strain and source not given

RRWQWR [LfcinB6]
activity against E. faecium: inactive
